# Data as given in patent US20040127518A1, “Modulation of anxiety through blockade of anandamide hydrolysis” (priority 2002, published 2004).
# Entries after “also recorded” stand apart in the source; their conditions may differ. Read-outs that look alike come from different tables or passages of the source.
# How the values were obtained:
# [1] = molecular target: electric eel acetylcholinesterase (Electrophorus electricus, UniProt O42275); conditions: for IC50: read-out: Cholinesterase IC50, Table 3, acetylcholinesterase
# Description: (§4) We prepared cell fractions from rat brain homogenates, and assayed membrane FAAH activity and cytosol MGL activity using anandamide [ethanolamine-3H] (American Radiolabeled Chemicals, ARC (St. Louis Mo.), 60 Ci/mmol) and 2-mono-oleoyl-glycerol-[glycerol-1,2,3^−3H] (ARC, St. Louis Mo., 20 Ci/mmol), respectively, as substrates (Dinh, T. Proc. Natl. Acad. Sci. U.S.A. (2002)). We conducted [^3H]anandamide transport assays in human astrocytoma cells (Piomelli, D. et al., Proc. Natl. Acad. Sci. U.S.A., 96, 5802-5807 (1999)); CB1 and CB2 binding assays in rat cerebellar membranes and CB2-overexpressing Chinese hamster ovary cells (Receptor Biology-Perkin Elmer, Wellesley, Mass.), respectively, using [^3H]WIN-55212-2 (NEN-Dupont, Boston, Mass., 40-60 Ci/mmol) as a ligand (Devane, W. A. et al. Science, 258, 1946-1949 (1992)); cholinesterase assays with a commercial kit (Sigma, St. Louis, Mo.), using purified enzymes (electric eel acetylcholinesterase type V-S and horse serum cholinesterase; both from Sigma, St. Louis, Mo.) and following manufacturer's instructions.
# [2] = molecular target: T1, FAAH (Rattus norvegicus, UniProt P97612); test: biochemical; assay type: biochemical; parameters: from tissue; host or cells: rat brain (membrane fraction of homogenate; Wistar rats)
# T1 sequence (P97612 1-579): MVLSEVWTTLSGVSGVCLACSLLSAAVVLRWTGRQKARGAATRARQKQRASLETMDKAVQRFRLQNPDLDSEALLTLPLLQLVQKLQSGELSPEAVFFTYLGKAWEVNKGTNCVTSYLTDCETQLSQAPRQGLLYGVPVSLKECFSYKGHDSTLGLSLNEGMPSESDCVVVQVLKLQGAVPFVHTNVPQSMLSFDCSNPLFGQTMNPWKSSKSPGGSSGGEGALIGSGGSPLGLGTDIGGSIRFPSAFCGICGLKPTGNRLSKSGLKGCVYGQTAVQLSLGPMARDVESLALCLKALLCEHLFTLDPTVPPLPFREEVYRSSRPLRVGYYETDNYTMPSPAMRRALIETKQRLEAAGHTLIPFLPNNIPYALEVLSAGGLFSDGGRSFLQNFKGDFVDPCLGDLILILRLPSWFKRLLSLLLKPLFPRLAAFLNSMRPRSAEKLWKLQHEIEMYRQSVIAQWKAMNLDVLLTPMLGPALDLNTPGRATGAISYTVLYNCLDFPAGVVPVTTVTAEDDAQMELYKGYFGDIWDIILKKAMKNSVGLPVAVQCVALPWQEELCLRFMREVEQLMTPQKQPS
# [3] = test system: rat cortical neurons; test: Transport, accumulation and release of non-metabolized [3H]anandamide in cortical neurons; assay type: cell-based; conditions: for accumulation of non-metabolized [3H]anandamide in neurons: 4-min incubation, UCM532 3 μM, UCM597 10 nM
# [4] = molecular target: CB2 receptor (Homo sapiens, UniProt P34972); test: CB2 binding assay in CB2-overexpressing Chinese hamster ovary cells, [3H]WIN-55212-2
# Description: as §4
# [5] = molecular target: T2, rat brain monoglyceride lipase (MGL) (Rattus norvegicus, UniProt Q8R431); test: Cytosol MGL activity, 2-mono-oleoyl-glycerol as substrate
# T2 sequence (Q8R431 1-303): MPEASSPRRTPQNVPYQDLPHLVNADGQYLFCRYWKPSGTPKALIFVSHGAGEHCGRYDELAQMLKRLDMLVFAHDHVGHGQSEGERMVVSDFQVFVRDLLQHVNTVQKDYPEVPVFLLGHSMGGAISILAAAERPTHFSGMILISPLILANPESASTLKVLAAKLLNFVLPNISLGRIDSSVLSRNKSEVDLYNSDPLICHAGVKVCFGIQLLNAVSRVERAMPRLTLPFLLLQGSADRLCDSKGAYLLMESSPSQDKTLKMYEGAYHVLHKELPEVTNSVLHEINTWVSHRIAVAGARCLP
# Description: as §4
# [6] = Body temperature (rectal probe); assay type: in vivo
# Description: (§1) We dissolved all compounds in saline/Tween 80/polyethylenglycol (90/5/5) and administered them by i.p. injection immediately before tests. We measured body temperature with a rectal probe (Type T, Copper-Costantan Thermocouple-Physitemp Instruments INC, Clifton, N.J.) connected to a digital thermometer (model BAT-12 Physitemp Instruments INC, Clifton, N.J.); and catalepsy using the procedure described in Tseng and Craft (Tseng, A. H. et al., Eur. J. Pharmacol., 430, 41-47 (2001)).
# [7] = Mouse formalin test; assay type: in vivo; conditions: 0.5 mg kg-1 i.p.
# Procedure: (§2) We dissolved FAAH inhibitors in polyethyleneglycol/water (1/1) and rimonabant in saline. Formalin and hot-plate assays were carried out in the mouse, as described (Beltramo, M. et al., FEBS Lett., 403, 263-267 (1997)).
# (§3) The compounds exerted, however, moderate antinociceptive effects in two models of acute pain.
# [8] = Food intake in free-feeding rats; assay type: in vivo, rat; conditions: UCM532 10 mg kg-1 i.p.; UCM597 0.3 mg kg-1 i.p.; data not shown
# Procedure: We recorded food intake in free-feeding rats by using an automated system (Scipro Inc., New York). Rats were acclimated to the test cages for three days prior to the tests. Each test began at the onset of the dark phase and lasted for 24 hours.
# [9] = molecular target: horse plasma butyryl cholinesterase (Equus caballus, UniProt P81908); test: Cholinesterase assay with commercial kit, purified enzyme
# Description: as §4
# [10] = Mouse hot-plate test; assay type: in vivo; conditions: 0.5 mg kg-1 i.p., 60 min before test
# Procedure: as §2, §3
# [11] = test system: anandamide transport; test: [3H]anandamide transport assay in human astrocytoma cells; conditions: human astrocytoma cells
# Description: as §4
# [12] = Elevated zero maze test; assay type: in vivo, rat; conditions: adult rats; i.p. 30 min before test; UCM532 5 and 10 mg kg-1; UCM597 0.05-0.1 mg kg-1
# Procedure: We dissolved FAAH inhibitors and rimonabant in dimethylsulfoxide (DMSO)/saline (7/3 and 9/1, respectively); we administered FAAH inhibitors by i.p. injection 30 min before tests and rimonabant 30 min before UCM532. The elevated zero maze was comprised of a black Perspex annular platform (105 cm diameter, 10 cm width) elevated to 65 cm above ground level, divided equally into four quadrants (Bickerdike, M. J. et al., Eur. J. Pharmacol., 271, 403-411 (1994); Shepherd, J. K. et al., Psychopharmacology, 116, 56-64 (1994)). […] We placed the rats in a closed quadrant and video recorded them for 5-min periods, thoroughly cleaning the maze between sessions. […] Results are expressed as percent time in open quadrant/total time (percent time open). Results were analyzed by one-way ANOVA followed by Tukey's test. We recorded motor activity of each rat in an Opto-Varimex cage (Columbus Instruments, Columbus, Ohio) linked on-line to a computer and placed in a sound-attenuated room illuminated by a 20-W white light. The amount of time spent in ambulatory activity was analyzed using an Auto-Track software (Columbus Instruments, Columbus, Ohio) as described elsewhere (Ali, M. M. et al., Neurosci. Lett., 284, 57-60 (2000); Wedzony, K. et al., Neuropsychopharmacology, 23, 547-559 (2000)). […] We analyzed data by overall one-way ANOVA followed by Tukey's test for individual between-group comparisons. […]
# [13] = Catalepsy; assay type: in vivo; conditions: UCM532 10 mg kg-1 i.p.; UCM597 0.3 mg kg-1 i.p.; data not shown
# Description: as §1
# [14] = test system: brain content of anandamide, other fatty acid ethanolamides and 2-AG; test: Brain levels of fatty acid ethanolamides and 2-AG by HPLC/MS; assay type: in vivo, rat; conditions: 0.3 mg kg-1 i.p., 2 h after injection
# Description: We extracted lipids from tissues with a methanol-chloroform mixture and fractionated them by silica gel column chromatography (Giuffrida, A. et al., Anal. Biochem., 280, 87-93 (2000)). Anandamide and other fatty acid derivatives were quantified by HPLC/MS, using an isotope dilution method (Giuffrida, A. et al., Anal. Biochem., 280, 87-93 (2000)).
# [15] = Table 3, read-out: Amidohydrolase IC50
# [16] = Table 4, FAAH IC50, read-out: Inhibition of Amidohydrolase IC50
# Chain of electric eel acetylcholinesterase (O42275 whole entry): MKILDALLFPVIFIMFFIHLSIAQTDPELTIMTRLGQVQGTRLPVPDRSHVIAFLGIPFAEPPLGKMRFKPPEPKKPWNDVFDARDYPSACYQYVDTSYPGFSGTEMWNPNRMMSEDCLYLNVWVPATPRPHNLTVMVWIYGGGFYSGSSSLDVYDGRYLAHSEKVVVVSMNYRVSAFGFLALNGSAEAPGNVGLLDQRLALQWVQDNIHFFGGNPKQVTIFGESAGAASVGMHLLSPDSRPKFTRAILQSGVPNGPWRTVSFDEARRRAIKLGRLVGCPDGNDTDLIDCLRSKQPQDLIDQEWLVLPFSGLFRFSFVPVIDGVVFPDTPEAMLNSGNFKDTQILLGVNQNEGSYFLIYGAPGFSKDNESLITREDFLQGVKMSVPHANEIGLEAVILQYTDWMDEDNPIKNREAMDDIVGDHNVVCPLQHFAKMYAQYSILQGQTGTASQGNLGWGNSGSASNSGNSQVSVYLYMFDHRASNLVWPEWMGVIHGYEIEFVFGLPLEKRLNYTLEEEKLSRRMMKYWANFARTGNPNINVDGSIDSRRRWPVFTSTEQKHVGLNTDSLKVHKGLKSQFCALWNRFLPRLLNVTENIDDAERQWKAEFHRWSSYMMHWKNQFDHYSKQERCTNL
# Chain of horse plasma butyryl cholinesterase (P81908 whole entry): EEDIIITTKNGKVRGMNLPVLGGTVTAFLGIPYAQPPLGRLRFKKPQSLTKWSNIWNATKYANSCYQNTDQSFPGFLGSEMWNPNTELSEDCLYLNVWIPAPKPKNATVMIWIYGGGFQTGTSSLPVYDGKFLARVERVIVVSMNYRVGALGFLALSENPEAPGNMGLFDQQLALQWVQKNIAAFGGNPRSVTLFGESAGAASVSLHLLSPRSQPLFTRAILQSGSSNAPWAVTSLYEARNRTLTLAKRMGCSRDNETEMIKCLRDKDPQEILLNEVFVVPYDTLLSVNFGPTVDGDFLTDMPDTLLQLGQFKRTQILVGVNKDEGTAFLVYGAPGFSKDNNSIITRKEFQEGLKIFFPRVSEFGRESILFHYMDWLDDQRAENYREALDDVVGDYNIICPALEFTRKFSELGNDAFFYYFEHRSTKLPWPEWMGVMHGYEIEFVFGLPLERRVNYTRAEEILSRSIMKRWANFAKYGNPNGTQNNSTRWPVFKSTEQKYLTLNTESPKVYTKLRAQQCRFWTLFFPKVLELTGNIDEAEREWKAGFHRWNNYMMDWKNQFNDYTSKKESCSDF
# Chain of CB2 receptor (P34972 whole entry): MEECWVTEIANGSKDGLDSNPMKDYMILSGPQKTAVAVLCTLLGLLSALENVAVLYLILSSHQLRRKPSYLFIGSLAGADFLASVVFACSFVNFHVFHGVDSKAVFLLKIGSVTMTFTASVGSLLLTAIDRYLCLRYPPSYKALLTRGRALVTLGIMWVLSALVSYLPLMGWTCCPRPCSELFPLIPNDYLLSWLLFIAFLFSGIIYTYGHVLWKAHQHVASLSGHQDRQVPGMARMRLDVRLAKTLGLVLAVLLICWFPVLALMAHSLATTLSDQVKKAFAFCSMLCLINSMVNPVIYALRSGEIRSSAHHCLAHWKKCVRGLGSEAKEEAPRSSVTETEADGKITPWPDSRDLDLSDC
compound,measurement,setting,value
"2.3-dihyrdo-2.2-dimethyl-7-benzogumaol N-methylcarbamate [PL#15, reference compound]",IC50,[1],0.56 µM
same,IC50,[2]; [15],> 30000 nM
same,IC50,[2]; [16],> 30000 nM
4-fluoraphenyl N-butylcarbamate [PL#12],IC50,[1],> 30 µM
same,IC50,[2]; [15],11500 nM
same,IC50,[2]; [16],11500 nM
"CCCCC/C=C\C/C=C\C/C=C\C/C=C\CCCC(=O)Nc1ccc(O)cc1 [AM404, N-(4-hydroxyphenyl)arachidonamide, reference compound]",accumulation of non-metabolized [3H]anandamide in neurons,[3]; AM404 10 μM,significantly reducing; also recorded: reduces
same,effect on [3H]anandamide release from UCM597-treated neurons,"[3]; AM404 10 μM, 15-min incubation",not inhibited
"CNC(=O)Oc1cccc2ccccc12 [PL#18, carbaryl, reference compound]",IC50,[1],3.1 µM
same,inhibition of FAAH activity (in words),[2],ineffective
same,IC50,[2]; IC50(nM),> 100000 nM
"NC(=O)c1cccc(-c2cccc(OC(=O)NC3CCCCC3)c2)c1 [UCM597, cyclohexylcarbamic acid 3′-carbamoylbiphenyl-3-yl ester]",effect on binding of a high-affinity ligand to CB2 (in words),[4],no effect
same,effect on MGL activity (in words),[5],did not affect
same,"body temperature / hypothermia, compound alone","[6]; UCM532 10 mg kg-1 i.p., UCM597 0.3 mg kg-1 i.p.",no effect and no
same,decrease in body temperature elicited by anandamide,[6]; UCM597 0.3 mg kg-1 i.p. 30 min before anandamide 5 mg kg-1 i.p.,intensified and prolonged
same,early phase of formalin-evoked pain behavior,[7],attenuated
same,late phase of formalin-evoked pain behavior,[7],little or no change
same,accumulation of non-metabolized [3H]anandamide in neurons,[3]; AM404 10 μM,promote accumulation
same,accumulated [3H]anandamide released back into the medium,"[3]; UCM597-treated (10 nM) neurons, 15 min in [3H]anandamide-free solution, n=3",42.6±8.7%
same,carrier-mediated uptake of [3H]anandamide,[3]; rat cortical neurons,without reducing
same,hyperphagia (increased food intake),[8],no
same,effect on acetylcholinesterase activity (in words),[1],did not affect
same,effect on butyryl cholinesterase activity (in words),[9],did not affect
same,"response latencies, hot-plate test",[10],significantly lengthened
same,effect on anandamide transport (in words),[11],no effect
same,"percent time open, elevated zero maze",[12],anxiolytic-like responses
same,catalepsy (rigid immobility),[13],no catalepsy
same,brain content of 2-AG,[14],did not change
same,brain content of anandamide,[14],significant elevations
same,brain content of oleoylethanolamide,[14]; n=8-15,725.3 ± 28.6 pmol g^−1 of tissue
same,brain content of palmitoylethanolamide,[14]; n=8-15,1324±395 pmol g^−1 of tissue
hexyl-N-cyclohexyl carbamate [PL#9],IC50,[1],> 30 µM
same,IC50,[2]; [15],3700 nM
same,IC50,[2]; [16],3700 nM
